The source of these data is PMC5048296, “Sex pheromone recognition and characterization of three pheromone-binding proteins in the legume pod borer, Maruca vitrata Fabricius (Lepidoptera: Crambidae)” (Scientific Reports, 2016).

Converted amounts (≈) assume the structure as drawn. Read-outs that look alike come from different tables or passages of the source.

In one series the target is MvitPBP1 (Maruca vitrata, UniProt A0A0K0K7G1). Kind of series: Fluorescence competitive binding assay with 1-NPN probe, recombinant MvitPBP1. Here is the method: (§1) Fluorescence binding activity was determined according to the method of Sun et al.[33]. Emission fluorescence spectra were recorded on a Hitachi F-4500 at 25 °C in a right angle configuration, with a 1 cm light path quartz cuvette and 5 nm slits for both excitation and emission. The protein was dissolved in 20 mM Tris-HCl buffer (pH 7.4) and ligands were added as 1 mM methanol solutions. To measure the affinity of the fluorescent ligand 1-NPN to recombinant target proteins, a 2 μM protein solution in 20 mM Tris-HCl (pH 7.4) was titrated with aliquots of […] ligand in methanol to final concentrations of 2–16 μM. After each PBP or ligand was added into the reaction buffer, the mixture solution was incubated for 2 min at room temperature. The probe was excited at 337 nm and emission spectra were recorded between 380 and 450 nm. The affinities of the other ligands were measured in competitive binding assays. A solution of the protein and 1-NPN at a concentration of 2 μM was titrated with 1 mM methanol solutions of each competitor over concentration ranges of 2–24 μM, depending on the ligand (the solubilities are (EPA estimates): E10E12-16:Ald, 0.5 uM; E10-16:Ald, 0.3 uM; E10E12-16:OH, 0.17 uM; and E10-16:OH, 0.97 uM in ChemSpider). The dissociation constant for 1-NPN and the stoichiometry of binding were obtained by processing the data using Prism software. Dissociation constants of the competitors were calculated from the corresponding IC50 values (concentrations of ligands halving the initial fluorescence value of 1-NPN), using the equation: Ki = [IC50]/1 + [1-NPN]/K1-NPN, where [1-NPN] is the free concentration of 1-NPN and K1-NPN is the dissociation constant of the coplex protein/1-NPN.
Chain of MvitPBP1 (A0A0K0K7G1 entry or part of it): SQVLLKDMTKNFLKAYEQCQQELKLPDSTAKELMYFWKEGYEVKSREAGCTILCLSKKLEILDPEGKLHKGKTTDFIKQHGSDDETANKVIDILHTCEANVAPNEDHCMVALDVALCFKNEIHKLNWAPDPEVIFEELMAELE

Details of series [1]: method as in ChemSpider. The following applies: ref ChemSpider; cited from earlier work.
Another series addresses MvitPBP2 (Maruca vitrata, UniProt A0A1D6YJA8). Nature of the series: Fluorescence competitive binding assay with 1-NPN probe, recombinant MvitPBP2. Here is the method: as §1
For a further series, the system named is MvitGOBP2. More on the design: method as in PMID 26517714. The following applies: read-out: Ligand concentration at which fluorescence intensity of the MvitGOBP2/1-NPN complex decreased to approximately 50%; cited from earlier work.
Series [2] deals with MvitPBP3 (Maruca vitrata). Nature of the series: Fluorescence competitive binding assay with 1-NPN probe, recombinant MvitPBP3. The protocol:
as §1, with “A solution of the protein and 1-NPN at a concentration of 2 μM was titrated with 1 mM methanol solutions of each competitor over concentration ranges of 2–24 μM, depending on the ligand (the solubilities are (EPA estimates): E10E12-16:Ald, 0.5 uM; E10-16:Ald, 0.3 uM; E10E12-16:OH, 0.17 uM; and E10-16:OH, 0.97 uM in ChemSpider). The dissociation constant for 1-NPN and the stoichiometry of binding were obtained by processing the data using Prism software.” left out

The mark [3] stands for this setting: MvitPBP1, 2 μM protein and 1-NPN, 20 mM Tris-HCl pH 7.4, read-out: IC50 (ligand concentration displacing 50% of the fluorescence intensity of the MvitPBPs/1-NPN complex).
[4] abbreviates: MvitPBP1, calculated from IC50, read-out: Ki (dissociation constant).
[5] abbreviates: MvitPBP2; 2 μM protein and 1-NPN, 20 mM Tris-HCl pH 7.4; read-out: IC50 (ligand concentration displacing 50% of the fluorescence intensity of the MvitPBPs/1-NPN complex).
The mark [6] stands for this setting: MvitPBP2; calculated from IC50; read-out: Ki (dissociation constant).

Chain of MvitPBP2 (A0A1D6YJA8 entry or part of it): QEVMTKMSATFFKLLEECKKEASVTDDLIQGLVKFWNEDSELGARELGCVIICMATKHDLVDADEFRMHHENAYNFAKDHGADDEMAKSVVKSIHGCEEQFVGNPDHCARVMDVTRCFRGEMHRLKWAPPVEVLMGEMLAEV
Chain of MvitPBP3 (Maruca vitrata) (A0A1D6YJA8 entry or part of it): as above

A word on the Ki: it is the dissociation constant of the complex between target and ligand, obtained from inhibition or displacement. In the case of `CCC/C=C/C=C/CCCCCCCCCO` [E10E12-16: OH, (E,E)-10,12-Hexadecadien-1-ol], the IC50 on MvitPBP1 (setting [3]) stood at 8.84 µM; at MvitPBP2 (setting [5]), 5.91 µM. Besides, the values for the Ki on MvitPBP1 (setting [4]) and at MvitPBP2 (setting [6]) were 7.73 µM and 5.11 µM, respectively. Further, the “Solubility (EPA estimates)” value in series [1] was 0.17 µM (≈ 0.0405 µg/mL).

For the molecule `CCCCC/C=C/CCCCCCCCCO` [E10-16: OH, (E)-10-Hexadecen-1-ol], the IC50 stood at 7.64 µM at MvitPBP1 (setting [3]) and 6.82 µM on MvitPBP2 (setting [5]). Further, the values for the Ki on MvitPBP1 (setting [4]) and on MvitPBP2 (setting [6]) were 6.69 µM and 5.9 µM, respectively. Besides, in series [1], the “Solubility (EPA estimates)” value is 0.97 µM (≈ 0.233 µg/mL).

Regarding `CCCCC/C=C/CCCCCCCCC=O` [E10-16: Ald, (E)-10-Hexadecenal], the IC50 on MvitPBP1 (setting [3]) worked out at 7.36 µM; at MvitPBP2 (setting [5]), 5.53 µM. Besides, the inhibitory constant (Ki) on MvitPBP1 (setting [4]) was 6.44 µM; at MvitPBP2 (setting [6]) it was 4.78 µM. Moreover, the “Solubility (EPA estimates)” value in series [1] was 0.3 µM (≈ 0.0715 µg/mL).

With `c1ccc(Nc2cccc3ccccc23)cc1` [1-NPN, N-phenyl-1-naphthylamine, reference compound], the Kd was 13 µM at MvitPBP1 and 11.9 µM on MvitPBP2 (read-out: Dissociation constant of the MvitPBP2/1-NPN complex; calculated by Scatchard plots).

On to `CC(=O)c1ccc(C(C)=O)cc1` [1,4-diacetyl benzene], for which, on MvitPBP1, the IC50 was 19.6 µM and the Ki amounted to 17.2 µM.

As to `CCC/C=C/C=C/CCCCCCCCC=O` [E10E12-16: Ald, (E,E)-10,12-Hexadecadienal], the IC50 was found to be 5.68 µM at MvitPBP1 (setting [3]) and 5.89 µM on MvitPBP2 (setting [5]). For the same molecule, the Ki on MvitPBP1 (setting [4]) was 4.97 µM; on MvitPBP2 (setting [6]), 5.09 µM. In addition, in series [1], the “Solubility (EPA estimates)” value was 0.5 µM (≈ 0.118 µg/mL).

Consider `CC(C=O)Cc1ccccc1` (stereo not shown) [2-methyl-3-phenylpropanal], for which the IC50 in the series on MvitGOBP2 was 3.81 µM; on MvitPBP2 (read-out: IC50 (ligand concentration displacing 50% of the fluorescence intensity of the MvitPBPs/1-NPN complex); MvitPBP2; 2 μM protein and 1-NPN, 20 mM Tris-HCl pH 7.4), 21 µM. For the same molecule, the “Ligand binding capacity (in words)” value in series [2] is “bonded strongly”. At MvitPBP2 (setting [6]), the Ki was 18.1 µM.

In the case of `Oc1cccc2[nH]ccc12` [1H-indol-4-ol], the IC50 at MvitPBP1 (setting [3]) is 22.5 µM. In addition, the Ki at MvitPBP1 (setting [4]) is 19.7 µM.

For `CCCCCCCCOC(=O)CCC` [Butanoic acid octyl ester], the IC50 in the series with MvitGOBP2 was 8.5 µM.
